# Test system: RAW264.7 macrophages (siLrp8)
# Assay: LPS‐induced inflammatory responses in RAW264.7 macrophages (siLrp8) with or without ApoER2 (Lrp8) plasmid
# Assay type: cell-based, mouse
# Source text: Further, we tracked the dynamic changes of inflammatory responses in mouse RAW264.7 macrophages (with Lrp8 silencing for shielding the influence of endogenous ApoER2). The RAW264.7 macrophages (siLrp8) were transfected with plasmids encoding ApoER2 (Lrp8) or vector, followed by treatment with recombinant mouse sclerostin and induction with LPS for varying durations. In detail, RAW 264.7 macrophages (siLrp8) were divided into 7 groups (n = 3 per group), including (1) Control, (2) LPS, (3) LPS + SOST, (4) Lrp8 + LPS + SOST 250 nM, (5) Lrp8 + LPS + SOST 500 nM, (6) Lrp8 + LPS + SOST 1 µM, and (7) Lrp8 + LPS. Cells in group (4–7) were transfected with plasmids encoding mouse ApoER2 (Lrp8), while cells in group (1–3) were transfected with vector. Twenty four hours later, cells in groups (3), (4), (5), and (6) were treated with recombinant mouse sclerostin at concentration of 1 µM, 250 nM, 500 nM, and 1 µM for 3 h, respectively, while cells in groups (1), (2), and (7) were treated with vehicle.^[ [35] ^] Then, cells in group (2‐7) were treated with LPS (1 µg/mL) for 18 h. All groups of cell lysates were collected for determining the mRNA expression levels of mouse TNF‐α, mouse MCP‐1, and mouse IL‐10 by RT‐PCR. Given the significant efficacy of recombinant mouse sclerostin at a concentration of 1 µM in mouse macrophages, 1 µM was selected for the subsequent studies.
# Then, the protein expression/secretion levels of pro‐inflammatory/anti‐inflammatory cytokines and chemokines, macrophage conversion, NF‐κB subcellular localization, phosphorylation, and expression were determined. In detail, RAW 264.7 cells (siLrp8) were divided into 5 groups (n = 3 per group), including (1) Control, (2) LPS, (3) LPS + SOST, (4) Lrp8 + LPS + SOST, and (5) Lrp8 + LPS. RAW 264.7 cells in groups (4) and (5) were transfected with plasmids encoding mouse ApoER2 (Lrp8), while cells in group (1‐3) were transfected with vector. Twenty four hours later, cells in groups (3) and (4) were treated with recombinant mouse sclerostin (SOST, 1 µM) for 3 h, while cells in groups (1), (2), and (5) were treated with vehicle.^[ [35] ^] Then, cells in groups (2), (3), (4), and (5) were treated with LPS (1 µg/mL) for 12 and 18 h. Cell mediums were collected for determining the protein expression/secretion levels of mouse TNF‐α, mouse MCP‐1, and mouse IL‐10 by ELISA.^[ [34] ^] The CD206^+ macrophages and CD11b^+ macrophages were determined by flow cytometry.^[ [36] ^]
# Additionally, for the determination of NF‐κB (p65) nuclear translocation, macrophages in groups (3) and (4) were treated with recombinant mouse sclerostin (SOST, 1 µM) overnight, then macrophages in groups (2), (3), (4), and (5) were treated with LPS (1 µg/mL) for 15 and 30 min. The NF‐κB (p65) nuclear translocation in macrophages was examined under microscope, after LPS induction for 15 min.^[ [37] ^] The protein level of NF‐κB (p65) in nuclear and cytoplasm was determined by western blot assay, after LPS induction for 30 min.^[ [38] ^]
# Subsequently, for the determination of NF‐κB phosphorylation, macrophages in groups (3) and (4) were treated with recombinant mouse sclerostin (SOST, 1 µM) overnight, then macrophages in groups (2), (3), (4), and (5) were treated with LPS (1 µg/mL) for 6 h. The protein level of phospho‐NF‐κB (p‐p65) was determined by western blot assay, followed by calculating the proportion of p‐p65/total p65 in cells.^[ [39] ^] At the same time, the mRNA expression level of NF‐κB (p65) was determined by RT‐PCR.^[ [40] ^] […]
# Total RNA was extracted from cells following the protocols of Trizol reagent (Invitrogen, 15 596 026). Reverse‐transcription was performed to obtain cDNA using HiScript III RT SuperMix kit (Vazyme, R323), and RT‐PCR was accomplished using a HiScript III RT SuperMix kit (Vazyme, R323) in a QuantStudio 7 PRO System (Applied Biosystems). The relative gene expression levels were calculated using the 2^−ΔΔCt method with GAPDH as the reference gene.^[ [40] ^] […]
# [1] = 1 µM, ApoER2‐overexpressing macrophages versus LPS+SOST or Lrp8+LPS, LPS 18 h, ELISA
# [2] = 1 µM, ApoER2‐overexpressing macrophages, LPS 30 min, western blot
# [3] = 1 µM, ApoER2‐overexpressing, versus LPS group, P < 0.01, LPS 18 h
# [4] = Lrp8+LPS+SOST 250 nM, 500 nM, 1 µM versus LPS+SOST or Lrp8+LPS, LPS 18 h, RT‐PCR
substance,measurement,setting,value
sclerostin: recombinant human/mouse full‐length sclerostin protein,NF‐κB nuclear translocation,"1 µM overnight, ApoER2‐overexpressing macrophages, LPS 15 min, immunofluorescence",significantly lower
same,Medium protein level of IL‐10,[1],significantly higher
same,Medium protein levels of TNF‐α and MCP‐1,[1],significantly lower
same,Proportion of anti‐inflammatory phenotype (CD206^+),"1 µM, ApoER2‐overexpressing macrophages, LPS 12 and 18 h, flow cytometry",significantly higher
same,p65 protein level in the cytoplasmic fraction,[2],elevation
same,p65 protein level in the nuclear fraction,[2],reduction
same,mRNA expression level of NF‐κB (p65),"1 µM, ApoER2‐overexpressing macrophages, LPS 6 h, RT‐PCR",significantly lower
same,Protein level of phospho‐NF‐κB (p‐p65),"1 µM, ApoER2‐overexpressing macrophages, LPS 6 h, western blot",significantly lower
same,mRNA expression of MCP‐1,[3],significantly suppressed
same,mRNA expression of TNF‐α,[3],significantly suppressed
same,mRNA expression of IL‐10,"1 µM, ApoER2‐overexpressing, versus LPS group, P < 0.05, LPS 18 h",significantly promoted
same,mRNA expression level of IL‐10,[4],dose‐dependently higher
same,mRNA expression levels of TNF‐α and MCP‐1,[4],dose‐dependently lower
same,"Cytokine/chemokine mRNA and medium protein, macrophage phenotype proportions, NF‐κB nuclear translocation/phosphorylation/mRNA: LPS+SOST versus LPS","RAW264.7 (siLrp8) without ApoER2 plasmid, sclerostin 1 µM, LPS 1 µg/mL for varying durations",no significant differences
